Data taken from article PMC3601177 (Oncoimmunology, 2013).
Where a name gives a salt, the structure may show the parent alone.

Legend:
[1] = Pharmacokinetics of IM and CGP74588 in patient plasma; type: in vivo, human; details: for increase of AUC (0–24 h) at D14 versus D10 / increase of Cmax at D14 versus D10: after IL-2 co-administration D10-D14, IM 400 mg/day; for AUC(0-inf): human, plasma
[2] = tested on: GIST with KIT exon 11 mutations; details: cited from earlier work
[3] = tested on: lymphocytes, neutrophils and platelets; assay: Blood cell counts during treatment; type: in vivo, human; details: between D1 and D10, IM alone

Row | accumulation ratio (D10 to D1 trough concentration ratio) ([1]; IM 400 mg/day, mean ± SD) | increase of AUC (0–24 h) at D14 versus D10 [1] [%] | increase of Cmax at D14 versus D10 [1] [%] | AUC (0–24h) ([1]; patient #10, IL-2 dose level III, grade 3 systemic capillary leak syndrome) [µg·h/mL] | lymphocyte, neutrophil or platelet counts [3] | AUC(0-inf) ([1]; im, 400 mg/day) [µg·h/mL] | AUC(0-inf) ([1]; oral, 400 mg) [µg·h/mL] | SMILES | AUC (0–24h) ([1]; patient #8, IL-2 dose level III, no toxicity) [µg·h/mL] | median OS [2] [mo] | median time to progression [2] [mo]
1 | 1.93 ± 0.69 | 61 | 49 | 25.1 |  |  |  | Cc1ccc(NC(=O)c2ccc(CN3CCNCC3)cc2)cc1Nc1nccc(-c2cccnc2)n1 [CGP74588, N-desmethyl-imatinib] | 13.4 |  | 
2 |  | 61 | 49 |  | no significant modifications | 64.1 | 39.7 | Cc1ccc(NC(=O)c2ccc(CN3CCN(C)CC3)cc2)cc1Nc1nccc(-c2cccnc2)n1 [IM, imatinib mesylate] |  | 60 | 27.2
